{
  "source": "paper PMC4805082",
  "about": "“Seizure control by decanoic acid through direct AMPA receptor inhibition” (Brain, 2015)",
  "test_system": "GABAA receptor mediated IPSCs in hippocampal CA1 pyramidal neurons",
  "test": "Whole-cell patch clamp, evoked GABAA receptor mediated IPSCs in CA1 pyramidal cells",
  "assay_type": "cell-based, rat",
  "details": "300 µM",
  "method": "Male Sprague-Dawley rats (postnatal Days 19–30) were sacrificed using an overdose of isoflurane or pentobarbitone (500 mg/kg). After decapitation the brain was rapidly removed, the hippocampus or entorhinal cortex-hippocampus slices was dissected from the brain and […] thick transverse slices were prepared on a VT1200S vibratome (Leica) or Vibratome (Vibratome® 1500 sectioning system, Intracell). The slicing was performed in ice-cold sucrose-based solution containing (in mM): 75 sucrose, 87 NaCl, 22 glucose, 2.5 KCl, 7 MgCl2, 1.25 NaH2PO4, 0.5 CaCl2 and 25 NaHCO3, pH 7.4, 315–330 mOsm equilibrated with 95% O2 plus 5% CO2. […]\nFor electrophysiological recording, the slices were placed in a recording chamber constantly perfused with 32–34°C oxygenated artificial CSF solution using a gravity-driven perfusion system. […] Series resistance was monitored throughout experiments using a −5 mV step command and cells showing a >20% change in series resistance, a series of resistance of >20 MΩ or an unstable holding current were rejected. […] Inhibitory postsynaptic current (IPSCs) were recorded in the presence of DL-APV (100 µM), NBQX (10 µM) and CGP55845 (5 µM) to block NMDA-, AMPA- and GABAB-receptors, respectively. […]",
  "data": [
    {"smiles": "CCCCCCCCCC(=O)O", "note": "[decanoic acid]", "values": [
      {"measurement": "effect on evoked IPSCs", "result": "no significant effect"},
      {"measurement": "effect on 1/CV^2 for IPSCs", "setting": "versus baseline, n = 6", "result": "no effect"}
    ]}
  ]
}
